Assay results: patent publication US20210161894A1, “Compositions and Methods for Modulating Liver Endothelial Cell Fenestrations” (priority 2017, published 2021)

Experiments:
LSEC fenestrations = test: SEM of LSEC fenestrations after drug treatments (Example 2, FIGS. 1-6); type: cell-based, mice
Summary of the method: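 Liver cells from young (3-4) and old (20-24 months) C57B16 mice, n=3 each, incubated 30 mins at 37° C, 5% CO2 in RPMI with or without drug; livers perfusion-fixed in 1% glutaraldehyde/4% para-formaldehyde. Blinded SEM at 10,000×; values are mean±SD of 8 images, 616-3312 fenestrations per treatment.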

fenestrations [1] = details: young mice; cited from earlier work
[2] = tested on: isolated LSECs (liver sinusoidal endothelial cells); test: SEM of fenestrations in isolated LSECs from young and old mice after 30 min drug treatment (second Example 7); type: cell-based; details: for Diameter / Frequency / Porosity: 30 min
fenestrations [3] = details: young (7 month) and old (24 month) mice; cited from earlier work

SMILES: COc1cc(CC(C)N)c(OC)cc1I (stereo not shown) [DOI, 2,5-Dimethoxy-4-iodoamphetamine]
- change in fenestration porosity (LSEC fenestrations; old mice, Cytochalasin D 0.5 μg/ml, DOI 0.1 μg/ml, 7KC 9 μM, Amlodipine 20 ng/ml): increased porosity
- change in fenestration frequency (LSEC fenestrations; old mice, Cytochalasin D 0.5 μg/ml, DOI 0.1 μg/ml, 7KC 9 μM, Bosentan 0.1 μM, Sildenafil 300 ng/ml, Amlodipine 20 ng/ml): increased
- sieve plates and fenestration density on SEM images (LSEC fenestrations; young and old mice): maintained sieve plates and increased fenestration density
- fenestration porosity and diameter (previously reported) (fenestrations [1]): increase fenestration porosity in young mice without any significant effects on fenestration diameter
- Change in Frequency, Old ([2]; old mice, 0.1 μg/ml): ↑ (ns)
- Diameter ([2]; old mice, 0.1 μg/ml): 135.27 ± 29.71 nm
- Frequency ([2]; old mice, 0.1 μg/ml): 3.06 ± 1.00 no/area
- Porosity ([2]; old mice, 0.1 μg/ml): 4.44 ± 1.07 %
- Diameter ([2]; old mice, 1 μg/ml): 155.28 ± 15.33 nm
- Frequency ([2]; old mice, 1 μg/ml): 0.67 ± 0.31 no/area
- Porosity ([2]; old mice, 1 μg/ml): 1.31 ± 0.47%
- effect on porosity and fenestration frequency (summary in words) ([2]; young and old LSECs): LSECs from old mice only were responsive
- Diameter ([2]; young mice, 0.1 μg/ml): 133.57 ± 9.78 nm
- Frequency ([2]; young mice, 0.1 μg/ml): 3.40 ± 1.56 no/area
- Porosity ([2]; young mice, 0.1 μg/ml): 4.91 ± 2.02%
- Diameter ([2]; young mice, 1 μg/ml): 135.64 ± 21.21 nm
- Frequency ([2]; young mice, 1 μg/ml): 0.83 ± 0.75 no/area
- Porosity ([2]; young mice, 1 μg/ml): 1.45 ± 1.27%
- fenestrations after in vivo administration (fenestrations [3]): increased fenestrations only in young (7 month) but not old (24 month) mice
